Tested on: yeast genes (expressed mRNA)
Assay: DNA chip measurement of expressed mRNA of yeast genes after culture with a toxic chemical substance
Type: cell-based, Saccharomyces cerevisiae S288C
Conditions: for level of expressed mRNA in the presence of chemical substance / level in the absence of chemical substance: cultured two hours with the chemical substance; for The level of expressed mRNA in the presence of chemical substance/The level of expressed mRNA in the absence of chemical substance: cultured two hours with substance
Summary of the method: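 S. cerevisiae S288C grown at 25 °C in YPD, exposed in log phase for 2 h to a toxicant at growth-inhibiting, non-lethal concentration. Cy3/Cy5-labelled cDNA from poly(A) mRNA hybridized to whole-genome chip at 65 °C >12 h. Ratio to untreated control, ≥2 significant.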

[Cl][Hg][Cl] [(3), HgCl2] was tested, and the “level of expressed mRNA in the presence of chemical substance / level in the absence of chemical substance” value (yeast gene YDR128W) was 1.4, the “level of expressed mRNA in the presence of chemical substance / level in the absence of chemical substance” value (yeast gene YDR133C) was 2.9 and the “level of expressed mRNA in the presence of chemical substance / level in the absence of chemical substance” value (yeast gene YDR250C) was 0.9. For the same molecule, the “level of expressed mRNA in the presence of chemical substance / level in the absence of chemical substance” value (yeast gene YDR278C) was 0.9, the “level of expressed mRNA in the presence of chemical substance / level in the absence of chemical substance” value (yeast gene YDR281C) was 0.4 and the “The level of expressed mRNA in the presence of chemical substance/The level of expressed mRNA in the absence of chemical substance” value (yeast gene YDR330W) was 1.2. The “level of expressed mRNA in the presence of chemical substance / level in the absence of chemical substance” value (yeast gene YDR366C) was 0.8, the “The level of expressed mRNA in the presence of chemical substance/The level of expressed mRNA in the absence of chemical substance” value (yeast gene YDR411C) was 1.8 and the “The level of expressed mRNA in the presence of chemical substance/The level of expressed mRNA in the absence of chemical substance” value (yeast gene YDR511W) was 0.9. The “The level of expressed mRNA in the presence of chemical substance/The level of expressed mRNA in the absence of chemical substance” value (yeast gene YDR545W) was 0.6, the “The level of expressed mRNA in the presence of chemical substance/The level of expressed mRNA in the absence of chemical substance” value (yeast gene YEL001C) was 1.4 and the “The level of expressed mRNA in the presence of chemical substance/The level of expressed mRNA in the absence of chemical substance” value (yeast gene YER004W) was 1.9. The “The level of expressed mRNA in the presence of chemical substance/The level of expressed mRNA in the absence of chemical substance” value (yeast gene YER035W) was 1.6, the “The level of expressed mRNA in the presence of chemical substance/The level of expressed mRNA in the absence of chemical substance” value (yeast gene YER079W) was 1.9 and the “The level of expressed mRNA in the presence of chemical substance/The level of expressed mRNA in the absence of chemical substance” value (yeast gene YER106W) was 1.3. For the same molecule, the “The level of expressed mRNA in the presence of chemical substance/The level of expressed mRNA in the absence of chemical substance” value (yeast gene YER158C) was 0.9, the “The level of expressed mRNA in the presence of chemical substance/The level of expressed mRNA in the absence of chemical substance” value (yeast gene YER163C) was 1.2 and the “The level of expressed mRNA in the presence of chemical substance/The level of expressed mRNA in the absence of chemical substance” value (yeast gene YER175C) was 1.3. For the same molecule, the “The level of expressed mRNA in the presence of chemical substance/The level of expressed mRNA in the absence of chemical substance” value (yeast gene YFL006W) was 1.6, the “The level of expressed mRNA in the presence of chemical substance/The level of expressed mRNA in the absence of chemical substance” value (yeast gene YFL010C) was 1.3 and the “The level of expressed mRNA in the presence of chemical substance/The level of expressed mRNA in the absence of chemical substance” value (yeast gene YFL024C) was 1.1. For the same molecule, the “The level of expressed mRNA in the presence of chemical substance/The level of expressed mRNA in the absence of chemical substance” value (yeast gene YFL032W) was 1.6, the “level of expressed mRNA in the presence of chemical substance / level in the absence of chemical substance” value (yeast gene YFR026C) was 1.0 and the “The level of expressed mRNA in the presence of chemical substance/The level of expressed mRNA in the absence of chemical substance” value (yeast gene YGL037C) was 6.5. The “The level of expressed mRNA in the presence of chemical substance/The level of expressed mRNA in the absence of chemical substance” value (yeast gene YGL047W) was 1.6, the “The level of expressed mRNA in the presence of chemical substance/The level of expressed mRNA in the absence of chemical substance” value (yeast gene YGL053W) was 1.2 and the “level of expressed mRNA in the presence of chemical substance / level in the absence of chemical substance” value (yeast gene YGL088W) was 0.9. The “The level of expressed mRNA in the presence of chemical substance/The level of expressed mRNA in the absence of chemical substance” value (yeast gene YGL121C) was 1.4, the “The level of expressed mRNA in the presence of chemical substance/The level of expressed mRNA in the absence of chemical substance” value (yeast gene YGL199C) was 1.7 and the “level of expressed mRNA in the presence of chemical substance / level in the absence of chemical substance” value (yeast gene YGR038W) was 3.5. The “The level of expressed mRNA in the presence of chemical substance/The level of expressed mRNA in the absence of chemical substance” value (yeast gene YGR101W) was 1.2, the “The level of expressed mRNA in the presence of chemical substance/The level of expressed mRNA in the absence of chemical substance” value (yeast gene YGR110W) was 2.2 and the “The level of expressed mRNA in the presence of chemical substance/The level of expressed mRNA in the absence of chemical substance” value (yeast gene YGR130C) was 0.6. The “level of expressed mRNA in the presence of chemical substance / level in the absence of chemical substance” value (yeast gene YGR139W) was 0.8, the “The level of expressed mRNA in the presence of chemical substance/The level of expressed mRNA in the absence of chemical substance” value (yeast gene YGR154C) was 2.2 and the “The level of expressed mRNA in the presence of chemical substance/The level of expressed mRNA in the absence of chemical substance” value (yeast gene YGR221C) was 0.9. For the same molecule, the “level of expressed mRNA in the presence of chemical substance / level in the absence of chemical substance” value (yeast gene YGR243W) was 9.4, the “level of expressed mRNA in the presence of chemical substance / level in the absence of chemical substance” value (yeast gene YGR293C) was 1.6 and the “level of expressed mRNA in the presence of chemical substance / level in the absence of chemical substance” value (yeast gene YHL006C) was 0.9. For the same molecule, the “level of expressed mRNA in the presence of chemical substance / level in the absence of chemical substance” value (yeast gene YHR095W) was 1.5, the “level of expressed mRNA in the presence of chemical substance / level in the absence of chemical substance” value (yeast gene YHR105W) was 2.4 and the “The level of expressed mRNA in the presence of chemical substance/The level of expressed mRNA in the absence of chemical substance” value (yeast gene YHR138C) was 2.2. For the same molecule, the “level of expressed mRNA in the presence of chemical substance / level in the absence of chemical substance” value (yeast gene YHR181W) was 2.4, the “The level of expressed mRNA in the presence of chemical substance/The level of expressed mRNA in the absence of chemical substance” value (yeast gene YHR199C) was 3.2 and the “The level of expressed mRNA in the presence of chemical substance/The level of expressed mRNA in the absence of chemical substance” value (yeast gene YIL023C) was 2.1. The “The level of expressed mRNA in the presence of chemical substance/The level of expressed mRNA in the absence of chemical substance” value (yeast gene YIL041W) was 2.1, the “The level of expressed mRNA in the presence of chemical substance/The level of expressed mRNA in the absence of chemical substance” value (yeast gene YIL087C) was 3.4 and the “level of expressed mRNA in the presence of chemical substance / level in the absence of chemical substance” value (yeast gene YIL127C) was 0.2. For the same molecule, the “level of expressed mRNA in the presence of chemical substance / level in the absence of chemical substance” value (yeast gene YJL017W) was 3.5, the “level of expressed mRNA in the presence of chemical substance / level in the absence of chemical substance” value (yeast gene YJL037W) was 1.4 and the “The level of expressed mRNA in the presence of chemical substance/The level of expressed mRNA in the absence of chemical substance” value (yeast gene YJL057C) was 1.6. For the same molecule, the “The level of expressed mRNA in the presence of chemical substance/The level of expressed mRNA in the absence of chemical substance” value (yeast gene YJL066C) was 1.2 and the “The level of expressed mRNA in the presence of chemical substance/The level of expressed mRNA in the absence of chemical substance” value (yeast gene YJL082W) was 2.4.

From US20100041089A1, “IMPROVED METHOD FOR DETECTING CHEMICAL […]” (priority 2006, published 2010)
